{"source": "ChEMBL document CHEMBL1152149", "about": "(Bioorg Med Chem Lett, 2008)", "key": {"[1]": {"experiment": "Cytotoxicity against MDCK cells assessed as detectable alteration of normal cell morphology", "type": "cell-based, Canis lupus familiaris", "details": "dog, read-out: Activity"}, "[2]": {"target": "Glutamate NMDA receptor", "experiment": "Inhibition of NMDA receptor in rat cerebellar granule neurons assessed as NMDA-induced intracellular calcium increase", "type": "cell-based"}, "[3]": {"system": "Influenza B virus", "type": "functional, organism-based", "details": "B/Hong Kong/05/1972, MDCK"}, "[4]": {"experiment": "Binding affinity to influenza A virus A/chicken/Germany/27 H7N7 weybridge strain M2 ion channel expressed in Escherichia coli"}, "[5]": {"target": "Glutamate NMDA receptor", "experiment": "Inhibition of NMDA receptor in rat cerebellar granule neurons assessed as glutamate-induced intracellular calcium increase", "type": "cell-based"}, "[6]": {"system": "H2N2 subtype", "type": "functional, organism-based, Influenza A virus (A/Japan/305/1957(H2N2))", "details": "Influenza A virus, MDCK"}}, "note": "pEC50, pIC50, pKd: −log10 of the molar value. Counter-ions that a name gives are not always drawn. Calls of active or inactive are those of the source. No cut-off for these calls is given here.", "data": [{"smiles": "C1CCC2(NC1)C1CC3CC(C1)CC2C3", "note": "(centres undefined)", "values": [{"measurement": "MCC", "setting": "[1]", "result": "> 1.03", "unit": "mM"}, {"measurement": "pIC50", "setting": "[2]", "result": 4.72}, {"measurement": "pEC50", "setting": "[3]", "result": 3.62}, {"measurement": "pKd", "setting": "[4]", "result": 6.41}, {"measurement": "pIC50", "setting": "[5]", "result": 3.62}, {"measurement": "pEC50", "setting": "[6]", "result": 6.00}]}, {"smiles": "CC1(F)C2CC3CC(C2)CC1C3", "note": "(centres undefined)", "values": [{"measurement": "pKd", "setting": "[4]", "result": "< 4.59"}]}, {"smiles": "CCCC1(O)C2CC3CC(C2)CC1C3", "note": "(centres undefined)", "values": [{"measurement": "MCC", "setting": "[1]", "result": "> 1.29", "unit": "mM"}, {"measurement": "pIC50", "setting": "[2]", "result": "< 3.46"}, {"measurement": "Activity", "setting": "[3]", "result": "inactive"}, {"measurement": "pIC50", "setting": "[5]", "result": "< 3.46"}, {"measurement": "pEC50", "setting": "[6]", "result": "> 5.68"}]}, {"smiles": "C1CNC2(C1)C1CC3CC(C1)CC2C3", "note": "(centres undefined)", "values": [{"measurement": "MCC", "setting": "[1]", "result": "> 1.1", "unit": "mM"}, {"measurement": "pIC50", "setting": "[2]", "result": 4.30}, {"measurement": "Activity", "setting": "[3]", "result": "inactive"}, {"measurement": "pKd", "setting": "[4]", "result": 5.94}, {"measurement": "pIC50", "setting": "[5]", "result": 3.50}, {"measurement": "pEC50", "setting": "[6]", "result": 5.74}]}, {"smiles": "NC1C2CC3CC(C2)CC1C3", "note": "(centres undefined)", "values": [{"measurement": "MCC", "setting": "[1]", "result": "> 1.33", "unit": "mM"}, {"measurement": "pIC50", "setting": "[2]", "result": 3.66}, {"measurement": "Activity", "setting": "[3]", "result": "inactive"}, {"measurement": "pKd", "setting": "[4]", "result": 5.63}, {"measurement": "pIC50", "setting": "[5]", "result": "< 3.46"}, {"measurement": "pEC50", "setting": "[6]", "result": 5.55}]}, {"smiles": "CC1(N)C2CC3CC(C2)CC1C3", "note": "(centres undefined)", "values": [{"measurement": "MCC", "setting": "[1]", "result": "> 1.24", "unit": "mM"}, {"measurement": "pIC50", "setting": "[2]", "result": 4.19}, {"measurement": "Activity", "setting": "[3]", "result": "inactive"}, {"measurement": "pKd", "setting": "[4]", "result": 5.44}, {"measurement": "pIC50", "setting": "[5]", "result": 3.51}, {"measurement": "pEC50", "setting": "[6]", "result": 5.46}]}, {"smiles": "CCCC1(N)C2CC3CC(C2)CC1C3", "note": "(centres undefined)", "values": [{"measurement": "MCC", "setting": "[1]", "result": "> 1.09", "unit": "mM"}, {"measurement": "pIC50", "setting": "[2]", "result": 4.21}, {"measurement": "Activity", "setting": "[3]", "result": "inactive"}, {"measurement": "pKd", "setting": "[4]", "result": 5.06}, {"measurement": "pIC50", "setting": "[5]", "result": 3.59}, {"measurement": "pEC50", "setting": "[6]", "result": "> 5.77"}]}, {"smiles": "CCC1(N)C2CC3CC(C2)CC1C3", "note": "(centres undefined)", "values": [{"measurement": "MCC", "setting": "[1]", "result": "> 1.16", "unit": "mM"}, {"measurement": "Activity", "setting": "[3]", "result": "inactive"}, {"measurement": "pKd", "setting": "[4]", "result": 5.17}, {"measurement": "pEC50", "setting": "[6]", "result": "> 5.72"}]}, {"smiles": "CC1(O)C2CC3CC(C2)CC1C3", "note": "(centres undefined)", "values": [{"measurement": "MCC", "setting": "[1]", "result": "> 1.51", "unit": "mM"}, {"measurement": "pIC50", "setting": "[2]", "result": "< 3.46"}, {"measurement": "Activity", "setting": "[3]", "result": "inactive"}, {"measurement": "pIC50", "setting": "[5]", "result": "< 3.46"}, {"measurement": "pEC50", "setting": "[6]", "result": 5.52}]}, {"smiles": "NC12CC3CC(CC(C3)C1)C2", "note": "[AMANTADINE HYDROCHLORIDE]", "values": [{"measurement": "MCC", "setting": "[1]", "result": "> 1.33", "unit": "mM"}, {"measurement": "Activity", "setting": "[3]", "result": "inactive"}, {"measurement": "pKd", "setting": "[4]", "result": 6.49}, {"measurement": "pEC50", "setting": "[6]", "result": 5.96}]}]}
